{"source": "patent US20090143392A1", "about": "“Methods of Treating Obesity and Metabolic Disorders” (ELBION GMBH, priority 2007, published 2009)", "key": {"[1]": {"biological_target": "T1, PDE10 from pig striatum (Sus scrofa, UniProt A0A287B941)", "T1 construct": "\"Striatum from male hybrid pigs (150 kg)\"", "experiment": "Inhibition of PDE10 from pig striatum", "assay_type": "biochemical", "settings": "0.1 μM [3H]-cAMP, 37° C., 30 minutes", "description": "Phosphodiesterase isoenzyme 10 (PDE10) activity was determined in preparations of human recombinant PDE10A and PDE10 from pig striatum, respectively.\nStriatum from male hybrid pigs (150 kg) were collected and frozen at −70° C.\nAt the day of preparation 0.5 g striatum was homogenised in 10 ml 50 mM Tris/Mg-buffer at 4° C. and centrifuged for one hour at 100000 g.\nNonspecific activity was tested without the enzyme. […] For determination of IC50 values the Hill-plot, 2-parameter-model, was used.\nPhosphodiesterase isoenzyme 10 (PDE10) activity was determined in preparations of rat, pig and guinea pig striatum respectively. Striatum from male Wistar rats (180-200 g), male hybrid pigs (150 kg) and male guinea pigs (CRL (HA), 500 g) respectively were collected and frozen at −70° C.\nFor the enzymatic testing of PDE10 activity 0.5 g of the isolated and frozen striatum was homogenised in 10 ml 50 mM Tris/Mg-buffer at 4° C. and centrifuged for one hour at 100000 g."}}, "note": "pIC50: −log10 of the molar value.", "data": [{"molecule": "1-propyl-3,4-dimethyl-imidazo[1,5-a]pyrido[3,2-e]pyrazine [Example 52a]", "values": [{"measurement": "pIC50", "setting": "[1]", "value": 7.28}]}, {"molecule": "CCc1nc(C)cn1-c1ccc2nc(Cl)c3c(C)nc(CC)n3c2n1", "note": "[Intermediate A23]", "values": [{"measurement": "melting point", "value": "138 to 141", "unit": "°C"}, {"measurement": "pIC50", "setting": "[1]", "value": 8.52}]}, {"molecule": "4-chloro-8-difluoromethoxy-3-methyl-1-propyl-imidazo[1,5-a]pyrido[3,2-e]pyrazine [Intermediate A28]", "values": [{"measurement": "pIC50", "setting": "[1]", "value": 8.10}]}, {"molecule": "8-difluoromethoxy-3-methyl-4-methylsulfonylamino-1-propyl-imidazo[1,5-a]pyrido[3,2-e]pyrazine [Example 87a]", "values": [{"measurement": "pIC50", "setting": "[1]", "value": 7.82}]}, {"molecule": "COc1ccc2nc(Cl)c3c(C)nc(C4CCCCC4)n3c2n1", "note": "[Intermediate A4]", "values": [{"measurement": "melting point", "value": "211 to 213", "unit": "°C"}, {"measurement": "pIC50", "setting": "[1]", "value": 8.70}]}, {"molecule": "CCCc1nc(C)c2c(Cl)nc3ccc(N4CCCCC4)nc3n12", "note": "[Intermediate A21]", "values": [{"measurement": "pIC50", "setting": "[1]", "value": 8.30}]}, {"molecule": "8-methoxy-3-methyl-1-phenethyl-4-methylsulfonylamino-imidazo[1,5-a]pyrido[3,2-e]pyrazine [Example 80a]", "values": [{"measurement": "pIC50", "setting": "[1]", "value": 7.43}]}, {"molecule": "3-methyl-4-methylsulfonylamino-1-propyl-imidazo[1,5-a]pyrido[3,2-e]pyrazin-8-ol [Example 86a]", "values": [{"measurement": "pIC50", "setting": "[1]", "value": 7.64}]}, {"molecule": "CCCc1nc(C)c2c(Cl)nc3cccnc3n12", "note": "[Intermediate A12]", "values": [{"measurement": "melting point", "value": "138 to 140", "unit": "°C"}, {"measurement": "pIC50", "setting": "[1]", "value": 7.42}]}, {"molecule": "3,4-dimethyl-8-methoxy-1-pentyl-imidazo[1,5-a]pyrido[3,2-e]pyrazine [Example 43a]", "values": [{"measurement": "pIC50", "setting": "[1]", "value": 7.46}]}, {"molecule": "1-cyclohexyl-3,4-dimethyl-8-methoxy-imidazo[1,5-a]pyrido[3,2-e]pyrazine [Example 44a]", "values": [{"measurement": "pIC50", "setting": "[1]", "value": 8.52}]}, {"molecule": "8-methoxy-4-(methoxycarbonyl-methyl-amino)-3-methyl-1-propyl-imidazo[1,5-a]pyrido[3,2-e]pyrazine [Example 65a]", "values": [{"measurement": "pIC50", "setting": "[1]", "value": 6.25}]}, {"molecule": "CCCc1nc(C)cn1-c1ccc2nc(Cl)c3c(C)nc(CCC)n3c2n1", "note": "[Intermediate A24]", "values": [{"measurement": "melting point", "value": "134 to 136", "unit": "°C"}, {"measurement": "pIC50", "setting": "[1]", "value": 8.70}]}, {"molecule": "CCCc1nc(C)cn1-c1ccc2nc(N)c3c(C)nc(CCC)n3c2n1", "note": "[Example 6b, 4-amino-3-methyl-1-propyll-8-(2-propyl-4-methyl-imidazol-1-yl)-imidazo[1,5-a]pyrido[3,2-e]pyrazine]", "values": [{"measurement": "melting point", "value": "215 to 221", "unit": "°C"}, {"measurement": "pIC50", "setting": "[1]", "value": 9.00}]}, {"molecule": "4-chloro-3-methyl-1-propyl-imidazo[1,5-a]pyrido[3,2-e]pyrazin-8-ol [Intermediate A25]", "values": [{"measurement": "pIC50", "setting": "[1]", "value": 7.20}]}, {"molecule": "CCc1nc(C)c2n1-c1nc(OC)ccc1NC2", "note": "[Example 93a, 1-ethyl-8-methoxy-3-methyl-4,5-dihydro-imidazo[1,5-a]pyrido[3,2-e]pyrazine]", "values": [{"measurement": "melting point", "value": "139 to 142", "unit": "°C"}]}, {"molecule": "3,4-dimethyl-1-hexyl-8-methoxy-imidazo[1,5-a]pyrido[3,2-e]pyrazine [Example 45a]", "values": [{"measurement": "pIC50", "setting": "[1]", "value": 7.28}]}, {"molecule": "4-azido-8-methoxy-3-methyl-1-propyl-imidazo[1,5-a]pyrido[3,2-e]pyrazine [Example 31a]", "values": [{"measurement": "pIC50", "setting": "[1]", "value": 6.77}]}, {"molecule": "3,4-dimethyl-8-methoxy-1-(3,3,3-trifluoropropyl)-imidazo[1,5-a]pyrido[3,2-e]pyrazine [Example 42a]", "values": [{"measurement": "pIC50", "setting": "[1]", "value": 7.23}]}, {"molecule": "8-methoxy-3-methyl-1-propyl-4-trifluoromethylsulfonylamino-imidazo[1,5-a]pyrido[3,2-e]pyrazine [Example 73a]", "values": [{"measurement": "pIC50", "setting": "[1]", "value": 7.72}]}, {"molecule": "3,4-dimethyl-8-methoxy-1-(2-chlorophenyl)-imidazo[1,5-a]pyrido[3,2-e]pyrazine [Example 49a]", "values": [{"measurement": "pIC50", "setting": "[1]", "value": 9.00}]}, {"molecule": "8-methoxy-3-methyl-1-propyl-4-ureido-imidazo[1,5-a]pyrido[3,2-e]pyrazine [Example 67a]", "values": [{"measurement": "pIC50", "setting": "[1]", "value": 7.08}]}, {"molecule": "COc1ccc2nc(Cl)c3cnc(C(C)C)n3c2n1", "note": "[Intermediate A14]", "values": [{"measurement": "melting point", "value": "162 to 164", "unit": "°C"}, {"measurement": "pIC50", "setting": "[1]", "value": 6.89}]}, {"molecule": "CCc1nc(C)c2c(Cl)nc3ccc(N(CC)CC)nc3n12", "note": "[Intermediate A20]", "values": [{"measurement": "melting point", "value": "145 to 150", "unit": "°C"}, {"measurement": "pIC50", "setting": "[1]", "value": 7.96}]}, {"molecule": "4-amino-1-(4-fluoro-phenyl)-8-methoxy-3-methyl-imidazo[1,5-a]pyrido[3,2-e]pyrazine [Example 12b]", "values": [{"measurement": "pIC50", "setting": "[1]", "value": 8.22}]}, {"molecule": "8-methoxy-3-methyl-4-(3-methyl-ureido)-1-propyl-imidazo[1,5-a]pyrido[3,2-e]pyrazine [Example 66a]", "values": [{"measurement": "pIC50", "setting": "[1]", "value": 6.12}]}, {"molecule": "COc1ccc2nc(Cl)c3c(C)nc(-c4ccccc4)n3c2n1", "note": "[Intermediate A9]", "values": [{"measurement": "melting point", "value": "240 to 242", "unit": "°C"}, {"measurement": "pIC50", "setting": "[1]", "value": 8.40}]}, {"molecule": "4-amino-1-hexyl-8-methoxy-3-methyl-imidazo[1,5-a]pyrido[3,2-e]pyrazine [Example 7b]", "values": [{"measurement": "pIC50", "setting": "[1]", "value": 7.32}]}, {"molecule": "4-difluoromethoxy-3-methyl-1-propyl-imidazo[1,5-a]pyrido[3,2-e]pyrazine-8-ol [Example 59a]", "values": [{"measurement": "pIC50", "setting": "[1]", "value": 7.96}]}, {"molecule": "4-ethylsulfonylamino-8-methoxy-3-methyl-1-propyl-imidazo[1,5-a]pyrido[3,2-e]pyrazine [Example 71a]", "values": [{"measurement": "pIC50", "setting": "[1]", "value": 6.90}]}, {"molecule": "8-methoxy-3-methyl-5-oxo-1-propyl-imidazo[1,5-a]pyrido[3,2-e]pyrazine [Example 60a]", "values": [{"measurement": "pIC50", "setting": "[1]", "value": 7.64}]}, {"molecule": "CCCCCc1nc(C)c2c(Cl)nc3ccc(OC)nc3n12", "note": "[Intermediate A6]", "values": [{"measurement": "melting point", "value": "110.5 to 113", "unit": "°C"}, {"measurement": "pIC50", "setting": "[1]", "value": 7.25}]}, {"molecule": "CCCCCCc1nc(C)c2c(Cl)nc3ccc(OC)nc3n12", "note": "[Intermediate A5]", "values": [{"measurement": "melting point", "value": "115 to 117", "unit": "°C"}, {"measurement": "pIC50", "setting": "[1]", "value": 7.15}]}, {"molecule": "CCc1nc(C)cn1-c1ccc2nc(C)c3c(C)nc(CC)n3c2n1", "note": "[Example 57a]", "values": [{"measurement": "melting point", "value": "73 to 75", "unit": "°C"}, {"measurement": "pIC50", "setting": "[1]", "value": 7.96}]}, {"molecule": "4-isopropylsulfonylamino-8-methoxy-3-methyl-1-propyl-imidazo[1,5-a]pyrido[3,2-e]pyrazine [Example 75a]", "values": [{"measurement": "pIC50", "setting": "[1]", "value": 7.11}]}, {"molecule": "CCc1nc(C)c2c(Br)nc3ccc(O)nc3n12", "note": "[Intermediate A26]", "values": [{"measurement": "melting point", "value": "> 360", "unit": "°C"}, {"measurement": "pIC50", "setting": "[1]", "value": 7.34}]}, {"molecule": "CCCc1ncc2c(Cl)nc3ccc(OC)nc3n12", "note": "[Intermediate A13]", "values": [{"measurement": "melting point", "value": "153 to 155", "unit": "°C"}, {"measurement": "pIC50", "setting": "[1]", "value": 7.28}]}, {"molecule": "CCc1nc(C)c2c(Cl)nc3ccc(N4CCN(C)CC4)nc3n12", "note": "[Intermediate A22]", "values": [{"measurement": "melting point", "value": "283 to 285", "unit": "°C"}, {"measurement": "pIC50", "setting": "[1]", "value": 7.28}]}, {"molecule": "8-methoxy-3-methyl-4-(3-isopropyl-ureido)-1-propyl-imidazo[1,5-a]pyrido[3,2-e]pyrazine [Example 68a]", "values": [{"measurement": "pIC50", "setting": "[1]", "value": 6.85}]}, {"molecule": "CCCc1nc(C)c2c(Cl)nc3ccc(C)nc3n12", "note": "[Intermediate A19]", "values": [{"measurement": "melting point", "value": "99 to 101", "unit": "°C"}, {"measurement": "pIC50", "setting": "[1]", "value": 8.05}]}, {"molecule": "8-difluoromethoxy-3,4-dimethyl-1-propyl-imidazo[1,5-a]pyrido[3,2-e]pyrazine [Example 54a]", "values": [{"measurement": "pIC50", "setting": "[1]", "value": 7.74}]}, {"molecule": "1-hexyl-8-methoxy-3-methyl-4-methylsulfonylamino-imidazo[1,5-a]pyrido[3,2-e]pyrazine [Example 79a]", "values": [{"measurement": "pIC50", "setting": "[1]", "value": 7.96}]}, {"molecule": "3,4-dimethyl-8-methoxy-1-phenyl-imidazo[1,5-a]pyrido[3,2-e]pyrazine dihydrochloride [Example 48a]", "values": [{"measurement": "pIC50", "setting": "[1]", "value": 8.15}]}, {"molecule": "CCCc1ncc2c(C)nc3ccc(OC)nc3n12", "note": "[Example 53a]", "values": [{"measurement": "pIC50", "setting": "[1]", "value": 7.37}]}, {"molecule": "COc1ccc2nc(Cl)c3c(C)nc(CCC(F)(F)F)n3c2n1", "note": "[Intermediate A7]", "values": [{"measurement": "melting point", "value": "149 to 153", "unit": "°C"}, {"measurement": "pIC50", "setting": "[1]", "value": 7.47}]}, {"molecule": "4-amino-8-methoxy-3-methyl-1-phenethyl-imidazo[1,5-a]pyrido[3,2-e]pyrazine [Example 9b]", "values": [{"measurement": "pIC50", "setting": "[1]", "value": 7.42}]}]}
